“Also recorded” adds a separate entry of the source.

Format in all cases: cell-based, human
The test system of test [1] is T84 cells (histamine-stimulated chloride ion secretion). Briefly: Histamine-stimulated chloride ion secretion (short circuit current) in T84 monolayers. The note with it: for effect on histamine-stimulated / calcium-mediated chloride ion secretion (in words): T84 cells; for activity at 200 µM: 200 μM compound alone. As to the method:
Enantiomerically pure 1,2-Bt2 -Ins(3,4,5,6)P4 /AM was synthesized to determine if 1,2-Bt2 -Ins(3,4,5,6)P4 /AM mediates the uncoupling of chloride ion secretion from intracellular calcium concentrations. […] After 7-10 days of incubation on SNAP-WELLS (Corning Costar; Cambridge, Mass.), monolayers had formed tight junctions. Cell monolayers were preincubated with 100, 200 or 400 μM Bt2 -Ins(3,4,5,6)P4 /AM for 30 min prior to mounting. After an additional 30 min, 0.1 mM histamine was added and chloride ion secretion was monitored. Chloride ion secretion was measured as short circuit current (Isc) across T84 monolayers grown to confluence and mounted in Ussing chambers equipped with voltage clamps (Physiologic Instruments; San Diego, Calif.). Data was acquired and analyzed using "Acquire and Analyze" software (Physiologic Instruments).
(§1) Initial studies were directed towards understanding structural determinants of Ins(3,4,5,6)P4 responsible for the inhibitory effect on calcium-mediated chloride ion secretion. A series of cell permeable inositol polyphosphate derivatives were synthesized. These derivatives contained either one or two non-hydrolyzable chemical groups on the 1, 2 or 3 position. T84 monolayers were preincubated for 30 minutes with 200 μM of 2-Bt-1-Me-Ins(3,4,5,6)P4 /AM, Me2 -Ins(3,4,5,6)P4 /AM, Me2 -Ins(1,4,5,6)P4 /AM or 2-Bt-3-Me-Ins(1,4,5,6)P4 /AM.
(§2) Following the incubation, cells were mounted in Ussing chambers. Calcium-mediated chloride ion secretion was stimulated with histamine (10^-4 M). Control values were the response to histamine in coincubated monolayers. Data are represented as mean peak ΔIsc ±SEM, expressed as % control for 8 to 10 experiments. Significant differences were identified using the Student's two-tailed t test.

The test system of test [2] is colonic epithelial T84 cells (calcium-mediated chloride ion secretion). Briefly: Inhibition of calcium-mediated chloride ion secretion (Table I summary). The note with it: pathway: Ins (3,4,5,6)P4. An excerpt:
The invention provides compounds that are agonists or antagonists of inositol polyphosphates. Inositol polyphosphate derivatives can function as inositol polyphosphate agonists and antagonists. The effects of compounds of the invention on Ins(3,4,5,6)P4 - and PtdInsP3 -mediated inhibition of calcium-mediated chloride ion secretion are described in the Examples and summarized in Table I.
Enantiomerically pure 1,2-Bt2 -Ins(3,4,5,6)P4 /AM was synthesized to determine if 1,2-Bt2 -Ins(3,4,5,6)P4 /AM mediates the uncoupling of chloride ion secretion from intracellular calcium concentrations. T84 cells (passages 18-48) were maintained as described previously (Weymer, et al., J. Clin. Invest. 76:1828 (1985)), which is incorporated herein by reference. After 7-10 days of incubation on SNAP-WELLS (Corning Costar; Cambridge, Mass.), monolayers had formed tight junctions. Cell monolayers were preincubated with 100, 200 or 400 μM Bt2 -Ins(3,4,5,6)P4 /AM for 30 min prior to mounting. After an additional 30 min, 0.1 mM histamine was added and chloride ion secretion was monitored. Chloride ion secretion was measured as short circuit current (Isc) across T84 monolayers grown to confluence and mounted in Ussing chambers equipped with voltage clamps (Physiologic Instruments; San Diego, Calif.). Data was acquired and analyzed using "Acquire and Analyze" software (Physiologic Instruments).

Test [3] relates to T84 cells (Ins(3,4,5,6)P4 inhibition of histamine-stimulated chloride ion secretion). In words: Reversal of Bt2 -Ins(3,4,5,6)P4 /AM inhibition of histamine-stimulated chloride ion secretion in T84 cells. Particulars: for Peak ΔIsc (% Control) after histamine (100 μM): 200 μM antagonist + 200 μM Bt2 Ins (3,4,5,6)P4 /AM, mean ± SEM, 30 min; for reversal of the inhibitory effect of Bt2 -Ins(3,4,5,6)P4 /AM / Ins(3,4,5,6)P4-mediated inhibition (in words): T84 cells, histamine-stimulated. The procedure: as §1, §2
T84 cells were preincubated with cell permeant inositol polyphosphates as described above to determine if any of the inositol polyphosphate derivatives function as antagonists of Ins(3,4,5,6)P4 inhibition of calcium-mediated chloride ion secretion. Following histamine stimulation, short circuit current was measured. […] The % control shown in FIG. 3 represents ΔIsc over peak Isc in control monolayers stimulated with histamine. However, […]

Setting [4] is: Homo sapiens, T84, 0.5 h, mean ± SEM, read-out: Peak ΔIsc (% Control) after histamine (100 μM).

In the case of `CC(=O)OCOP(=O)(OCOC(C)=O)O[C@H]1[C@H](OP(=O)(OCOC(C)=O)OCOC(C)=O)[C@@H](OP(=O)(OCOC(C)=O)OCOC(C)=O)[C@@H](Cl)[C@@H](Cl)[C@@H]1OP(=O)(OCOC(C)=O)OCOC(C)=O` (relative stereo) [D,L-1,2-Cl2-dideoxy-Ins(3,4,5,6)P4 /AM, D,L-1,2-dichloro-1,2-dideoxy-myo-inositol 3,4,5,6-TKphosphate oct (acetoxymethyl) ester], the activity at 400 µM in test [1] (Homo sapiens, T84, 0.5 h, 400 μM compound alone, mean ± SEM, read-out: Peak ΔIsc (% Control) after histamine (100 μM)) came out at 89.4 ± 7.8%. In addition, the “effect on histamine-stimulated / calcium-mediated chloride ion secretion (in words)” value in test [1] was “slight inhibitory effect on chloride ion secretion”.
On to `CCCC(=O)O[C@@H]1[C@@H](OC(=O)CCC)[C@H](OP(=O)(OCOC(C)=O)OCOC(C)=O)[C@@H](OP(=O)(OCOC(C)=O)OCOC(C)=O)[C@H](OP(=O)(OCOC(C)=O)OCOC(C)=O)[C@H]1OP(=O)(OCOC(C)=O)OCOC(C)=O` (relative stereo) [D,L-Bt2 -scyllo-Ins(3,4,5,6)P4 /AM, D,L-1,2-O-butyryl-scyllo-inositol 3,4,5,6-TKphosphate oct (acetoxymethyl) ester], for which the “Mechanism and Inositol Polyphosphate Pathway Affected” value in test [2] is reported as “Agonist of”. The “effect on histamine-stimulated / calcium-mediated chloride ion secretion (in words)” value in test [1] is on record as “inhibit calcium-mediated chloride secretion”; in test [1] (listed as scyllo derivative of the cell permeable Bt2 -Ins(3,4,5,6)P4 /AM), “at least as effective an inhibitor as the myo derivative”.
On to `CCCC(=O)O[C@H]1[C@@H](OC)[C@H](OP(=O)(OCOC(C)=O)OCOC(C)=O)[C@@H](OP(=O)(OCOC(C)=O)OCOC(C)=O)[C@H](OP(=O)(OCOC(C)=O)OCOC(C)=O)[C@H]1OP(=O)(OCOC(C)=O)OCOC(C)=O` [2-Bt-1-Me-Ins(3,4,5,6)P4 /AM, 2-O-butyryl-1-O-methyl-myo-inositol 3,4,5,6-TKphosphate oct (acetoxymethyl) ester], for which the “Mechanism and Inositol Polyphosphate Pathway Affected” value in test [2] is listed as “Antagonist of”. In test [3], the “Peak ΔIsc (% Control) after histamine (100 μM)” value came to 117.7 ± 10.6 % Control and the “reversal of the inhibitory effect of Bt2 -Ins(3,4,5,6)P4 /AM / Ins(3,4,5,6)P4-mediated inhibition (in words)” value is on record as “enhanced chloride ion secretion; also recorded: reversed Ins(3,4,5,6)P4 -mediated inhibition of chloride ion secretion; also recorded: reversed the inhibitory effect of Bt2 -Ins(3,4,5,6)P4 /AM”. The activity at 200 µM in test [1] (setting [4]) amounted to 87.3 ± 6.6%.
As for `CCCC(=O)O[C@@H]1[C@H](OC)[C@@H](OP(=O)(OCOC(C)=O)OCOC(C)=O)[C@H](OP(=O)(OCOC(C)=O)OCOC(C)=O)[C@@H](OP(=O)(OCOC(C)=O)OCOC(C)=O)[C@@H]1OP(=O)(OCOC(C)=O)OCOC(C)=O` [2-Bt-3-Me-Ins(1,4,5,6)P4 /AM, 2-O-butyryl-3-O-methyl-myo-inositol 3,4,5,6-TKphosphate oct (acetoxymethyl) ester], in test [3], the “Peak ΔIsc (% Control) after histamine (100 μM)” value was 69.7 ± 5.04 % Control and the “reversal of the inhibitory effect of Bt2 -Ins(3,4,5,6)P4 /AM / Ins(3,4,5,6)P4-mediated inhibition (in words)” value is given as “had essentially no effect”. In addition, in test [1] (setting [4]), the activity at 200 µM is 106 ± 3.7%.
The like results for `CO[C@@H]1[C@H](OC)[C@@H](OP(=O)(OCOC(C)=O)OCOC(C)=O)[C@H](OP(=O)(OCOC(C)=O)OCOC(C)=O)[C@@H](OP(=O)(OCOC(C)=O)OCOC(C)=O)[C@@H]1OP(=O)(OCOC(C)=O)OCOC(C)=O` [Me2 -Ins(1,4,5,6)P4 /AM, 2,3-di-O-methyl-myo-inositol 3,4,5,6-TKphosphate oct (acetoxymethyl) ester] were, in that order, 68.4 ± 7.3 % Control, “had essentially no effect” and 120 ± 10.6%.

For the origin of these results see patent publication US5880099A, “Inositol polyphosphates and methods of using same” (The Regents of the University of California, priority 1997, dated 1999).
